# Literature values in US20020141964A1, “Composition for arresting the flow of blood and method” (priority 2001, published 2002).
# Tested on: blood flowing from an open wound
# Details: shown in the earlier U.S. patent of the co-inventors
substance,measurement,value
potassium ferrate,accelerated clotting of blood flowing from an open wound,effectively accomplishes the accelerated clotting of blood
